ChEMBL document CHEMBL3632591, “Discovery and structural diversity of the hepatitis C virus NS3/4A serine protease inhibitor series leading to clinical candidate IDX320” (Bioorg Med Chem Lett, 2015)

How the values were obtained:
[1] = Inhibition of HCV genotype 4a NS3/4A protease; design: species or system Hepatitis C virus subtype 4a
[2] = AUC (infinity) in Sprague-Dawley rat at 2 mg/kg, iv administered as single dose; type: ADME, organism-based; design: dose 2 mg/kg, route intravenous, time infinity; details: in vivo
[3] = Oral bioavailability in Sprague-Dawley rat at 10 mg/kg administered as single dose; type: ADME, organism-based; details: in vivo
Cytochrome P450 2B6 = target: T1, Cytochrome P450 2B6 (Homo sapiens, UniProt P20813); assay: Inhibition of human CYP2B6; type: ADME
T1 sequence (P20813 whole entry): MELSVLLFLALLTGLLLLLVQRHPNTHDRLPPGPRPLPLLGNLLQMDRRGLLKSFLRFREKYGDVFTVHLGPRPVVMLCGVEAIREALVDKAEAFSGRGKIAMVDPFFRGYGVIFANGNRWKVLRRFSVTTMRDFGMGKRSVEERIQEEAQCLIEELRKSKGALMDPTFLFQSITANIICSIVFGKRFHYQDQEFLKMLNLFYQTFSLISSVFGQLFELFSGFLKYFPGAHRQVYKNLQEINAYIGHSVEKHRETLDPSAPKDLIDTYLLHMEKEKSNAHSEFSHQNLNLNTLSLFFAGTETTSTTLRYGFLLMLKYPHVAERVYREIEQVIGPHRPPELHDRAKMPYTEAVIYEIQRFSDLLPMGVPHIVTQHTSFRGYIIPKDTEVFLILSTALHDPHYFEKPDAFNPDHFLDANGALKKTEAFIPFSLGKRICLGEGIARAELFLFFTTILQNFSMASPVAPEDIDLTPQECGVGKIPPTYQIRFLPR

[4] = Tmax in Sprague-Dawley rat at 10 mg/kg, po administered as single dose; type: ADME, organism-based; details: in vivo
Cytochrome P450 1A2 = target: T2, Cytochrome P450 1A2 (Homo sapiens, UniProt P05177); assay: Inhibition of human CYP1A2; type: ADME
T2 sequence (P05177 whole entry): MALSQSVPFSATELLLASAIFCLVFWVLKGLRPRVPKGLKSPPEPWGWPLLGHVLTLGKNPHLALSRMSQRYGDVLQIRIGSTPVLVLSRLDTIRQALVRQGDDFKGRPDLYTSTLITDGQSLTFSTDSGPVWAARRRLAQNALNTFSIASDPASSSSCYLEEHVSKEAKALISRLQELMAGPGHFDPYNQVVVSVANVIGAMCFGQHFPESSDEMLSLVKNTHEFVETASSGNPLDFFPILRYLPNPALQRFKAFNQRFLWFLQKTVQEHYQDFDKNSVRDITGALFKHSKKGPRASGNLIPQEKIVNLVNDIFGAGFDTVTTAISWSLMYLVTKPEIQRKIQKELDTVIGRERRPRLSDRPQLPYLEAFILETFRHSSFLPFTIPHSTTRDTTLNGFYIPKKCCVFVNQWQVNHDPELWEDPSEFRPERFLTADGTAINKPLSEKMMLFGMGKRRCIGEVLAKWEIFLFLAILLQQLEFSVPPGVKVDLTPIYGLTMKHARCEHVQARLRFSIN

[5] = Tmax in CD-1 mouse at 2 mg/kg, po administered as single dose; type: ADME, organism-based; details: in vivo
Cytochrome P450 2D6 = Cytochrome P450 2D6 (Homo sapiens, UniProt P10635); assay: Inhibition of human CYP2D6; type: ADME
Cytochrome P450 2D6, sequence (P10635 whole entry): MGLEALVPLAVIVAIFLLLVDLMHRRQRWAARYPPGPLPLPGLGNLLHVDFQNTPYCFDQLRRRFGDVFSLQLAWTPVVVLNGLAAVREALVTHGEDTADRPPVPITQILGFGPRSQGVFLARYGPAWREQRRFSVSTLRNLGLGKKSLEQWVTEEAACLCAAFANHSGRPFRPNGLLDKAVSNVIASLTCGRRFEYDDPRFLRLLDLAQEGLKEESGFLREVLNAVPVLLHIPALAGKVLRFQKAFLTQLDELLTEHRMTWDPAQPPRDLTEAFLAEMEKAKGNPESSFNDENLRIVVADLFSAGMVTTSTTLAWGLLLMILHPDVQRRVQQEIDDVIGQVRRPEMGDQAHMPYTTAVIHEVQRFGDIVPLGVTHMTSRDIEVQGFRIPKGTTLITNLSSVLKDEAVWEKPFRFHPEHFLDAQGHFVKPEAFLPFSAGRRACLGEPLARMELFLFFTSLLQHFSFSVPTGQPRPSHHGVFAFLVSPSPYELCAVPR

Cytochrome P450 3A4 = Cytochrome P450 3A4 (Homo sapiens, UniProt P08684); assay: Inhibition of human CYP3A4; type: ADME
Cytochrome P450 3A4, sequence (P08684 whole entry): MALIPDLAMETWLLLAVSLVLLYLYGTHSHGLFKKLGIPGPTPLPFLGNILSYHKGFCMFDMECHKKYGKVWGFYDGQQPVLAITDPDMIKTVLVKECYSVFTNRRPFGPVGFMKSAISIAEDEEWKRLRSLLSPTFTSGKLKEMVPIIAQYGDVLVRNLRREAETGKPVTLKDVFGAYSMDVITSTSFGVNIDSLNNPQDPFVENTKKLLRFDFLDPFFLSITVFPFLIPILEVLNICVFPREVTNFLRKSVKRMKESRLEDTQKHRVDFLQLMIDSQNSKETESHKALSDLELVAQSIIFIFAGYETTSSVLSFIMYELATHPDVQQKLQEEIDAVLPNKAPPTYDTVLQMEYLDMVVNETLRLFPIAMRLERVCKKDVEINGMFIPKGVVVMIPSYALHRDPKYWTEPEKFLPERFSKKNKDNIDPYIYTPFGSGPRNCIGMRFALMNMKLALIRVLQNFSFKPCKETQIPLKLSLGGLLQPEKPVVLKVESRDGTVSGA

[6] = Cytotoxicity against monkey hepatocytes; type: cell-based, Macaca mulatta, Hepatocyte; details: rhesus monkey
[7] = Half life in Sprague-Dawley rat at 2 mg/kg, iv administered as single dose; type: ADME, organism-based; details: in vivo
[8] = Inhibition of HCV genotype 2a NS3/4A protease; design: species or system Hepatitis C virus subtype 2a
[9] = Cytotoxicity against human HuH7 cells by colorimetric proliferation assay; type: cell-based, Huh-7
[10] = Cmax in Sprague-Dawley rat plasma at 10 mg/kg, po administered as single dose measured after 24 hrs; type: ADME, organism-based; design: dose 10 mg/kg, route oral
[11] = Efflux ratio of permeability in human Caco2 cells; type: ADME, cell-based; details: Caco-2
[12] = AUC (0 to 24 hrs) in CD-1 mouse at 2 mg/kg, po administered as single dose; type: ADME, organism-based; design: dose 2 mg/kg, time < 24 hr, route oral; details: in vivo
[13] = AUC (infinity) in Cynomolgus monkey at 2 mg/kg, po administered as single dose; type: ADME, organism-based, Macaca fascicularis; design: dose 2 mg/kg, route oral, time infinity; details: in vivo
[14] = Tmax in Sprague-Dawley rat at 2 mg/kg, iv administered as single dose; type: ADME, organism-based; details: in vivo

- IC50 [1]: 0.0008 µM
- AUC(0-inf) [2]: 1770 ng·h/mL
- bioavailability [3]: 45%
- IC50 (Cytochrome P450 2B6): ≥ 10 µM
- Tmax [4]: 1 h
- IC50 (Cytochrome P450 1A2): ≥ 10 µM
- Tmax [5]: 2 h
- IC50 (Cytochrome P450 2D6): ≥ 10 µM
- IC50 (Cytochrome P450 3A4): ≥ 10 µM
- half-life [7]: 1.5 h
- IC50 [8]: 0.0008 µM
- Cmax [10]: 934 ng/mL
- efflux ratio [11]: 2.7
- AUC(0-t) at 24 h [12]: 1410 ng·h/mL
- AUC(0-inf) [13]: 8920 ng·h/mL
- Tmax [14]: 4.8 min
SMILES: COc1ccc2c(O[C@H]3CCN4C(=O)N(C)CCCCC=C[C@@H]5C[C@@]5(C(=O)NS(=O)(=O)C5(C)CC5)NC(=O)[C@@H]4C3)cc(-c3nc(C(F)(F)F)cs3)nc2c1C
- CC50 [6]: > 10 µM
- CC50 [9]: 52.8 µM
